One data set deals with U87 cells. Briefly: DNA transfection with p-Luc plasmid, luciferase expression. The settings on record: 1.5 µg pDNA with 7.5-25 µg peptide, 2 h 30 min, read one day post-transfection, mean of duplicates, result in words.
The subject of another data set is HCT116 cells. As to the kind of experiment: Luciferase protein transduction. It is filed as cell-based, human. The settings on record: HCT116, 2 µg recombinant luciferase with 10-32 µg peptide, 3 h in serum-free medium, mean of duplicates; result in words. On the procedure: To perform a rapid screening of the protein transduction activities of the two series of peptides, we selected to deliver the luciferase protein from Photinus pyralis, which has a molecular weight (MW) of 62 kDa and an isoelectric point (pI) of 6.3. Indeed, the measurement of the activity of this enzyme is fast and very sensitive. […] Increasing amounts of peptides were added to a fixed amount of luciferase, and after 3 h of incubation with the human colon cancer cells HCT116, enzymatic activity was measured.
Figure 1 Transduction of the luciferase protein. HCT116 cells in 48-well plates were treated with 2 µg of recombinant luciferase (Rec. Luc) (per duplicate) in the presence or absence of LAH4 peptides (LAH4-Ln series in (A) and LAH4-An series in (B)). After 3 h of incubation in serum-free medium, cells were washed once with 1 mL/well of phosphate buffer saline (PBS), lysed, and the luciferase activity was determined. […] For each peptide, four conditions were tested: 10, 16, 24 and 32 µg of peptide/2 µg recombinant luciferase, except for LAH4 (16, 24 and 32 µg). Non-complexed recombinant luciferase was used as the control (black bar). The hydrophilic angles are shown in italics. […] It is uncertain whether it counts as a property result. The luciferase activities are shown only as bars, with no printed numbers, and are left out.
Protein complexes were generated using increasing peptide/protein w/w ratios.
Then, 0.25 mL of serum-free medium containing the peptide/protein complexes was transferred into each well. After an incubation time of 3 h at 37 °C the medium was removed, cells were washed once with 1 mL/well of PBS, and then 100 μL of lysis buffer was added per well. Luciferase activity and protein content were measured as described above.

The test system of data set [1] is E. coli bacteria (ATCC 25922). As to the kind of experiment: Broth microdilution antibacterial assay (MIC) in Mueller–Hinton broth, pH 5. It is filed as cell-based. As to conditions: for MIC: E. coli ATCC 25922, broth microdilution, Mueller–Hinton broth pH 5, 37 °C, 12 h, OD600, concentration at which bacterial growth reaches a minimum (at least 80% inhibited), average of two experiments, each in triplicate; for MIC50: E. coli, Mueller–Hinton broth pH 5, x50 from Origin fits of the growth curves of Figure 3 (concentration range 100 µM to 0.52 µM), fit error given, * error estimated in the range of the 1.5-fold dilution steps. On the procedure: Therefore, the antibacterial properties of both series of peptides were analyzed in Mueller–Hinton (MH) broth at pH 5 by determining the minimal inhibitory concentrations (MICs).
Figure 3 Bacterial growth as a function of peptide concentration for the LAH4-Ln (A) and the LAH4-An series (B). The average of two experimental data sets (each data point derived from triplicates under the same experiment conditions) covering the concentration range 100 µM to 0.52 µM are shown by the relative bacterial growth when compared to bacteria in the absence of peptide (=100%). To guide the eye, the data have been fitted with the function ymin + (ymax − ymin)/(1 + (x/xo)^p)^s using the OriginPro software. […] The assay was performed in Mueller–Hinton broth, pH 5.
A broth microdilution assay was used to determine the minimal inhibitory concentration (MIC). A peptide aliquot of 1 mg was first solubilized in 50% ethanol (10 mM) then diluted in H2O to get a 300 μM peptide stock solution.
For all the activity tests, E. coli bacteria (ATCC® 25922^TM, Thermo Fisher Scientific, Courtaboeuf, France) were used. Briefly, some colonies from E. coli spread on gelose were resuspended in Mueller–Hinton broth, pH 7.4. After incubation at 37 °C for about 6 h this preculture was diluted to OD550nm = 0.2 in MH at pH5 and allowed to grow to reach the exponential phase (OD550nm = 1–2). After two-step dilution in MH pH5, the working bacteria suspension corresponding to 1.10^5–2.10^5 colony-forming units (CFU)/mL was obtained.
The antimicrobial testing was carried out in 96-well microplates (sterile polystyrene untreated with F-bottom, Thermo Scientific Nunc A/S, Roskilde, Denmark). The first column of the plate contains the highest final concentration (Cf) of peptide to test (two experiments were done: the first one starting at Cf 100 μM and a second one starting at 30 μM). All samples were added to the first column of the plate and subsequently spread onto the plate by a 1.5-fold dilution series in 10 steps. The last columns correspond to the positive and negative control conditions, respectively. Finally, the bacterial working suspension was distributed (50 μL at 1.10^5–2.10^5 CFU/mL in MH1X at pH 5) to each well except for the negative control (MH1X at pH5). The final volume was 100 μL/well and the range of peptide concentrations tested was from 100 μM to 1.73 μM for the first experiment and from 30 μM to 0.52 μM for the second experiment. The microplates were incubated at 37 °C for 12 h before bacterial growth was assessed by measuring the OD600. The initial bacterial density for each experiment was checked by spreading 100 μL of the working bacterial suspension, diluted 1/100 and 1/500 in MH1X, pH 5 on MH agar plates. After overnight incubation at 37 °C, the CFU were counted and the CFU/mL were determined. The percentage of bacterial growth compared to the positive control allows one to determine the MIC. The MIC values represent the average of the lowest tested peptide concentration (from both experiments) where most (at least 80%) of the bacterial growth is inhibited.

In data set [2] the test system is E. coli bacteria (ATCC 25922). The settings on record: cited from earlier work. On the procedure: Therefore, the antibacterial properties of both series of peptides were analyzed in Mueller–Hinton (MH) broth at pH 5 by determining the minimal inhibitory concentrations (MICs). […] Higher antimicrobial activity is observed when the angle increases. […] In contrast, for ...

For data set [3] the following is noted: naturally occurring antimicrobial peptides; cited from earlier work. An excerpt:
The pronounced antimicrobial activities of cationic amphipathic peptides including LAH4 sequences have been associated with the perforation of microbial membranes. Indeed, under conditions where the peptides align along the membrane surface, high concentrations of LAH4 peptides result in the lysis of lipid bilayers. It is therefore unexpected that antimicrobial activity is highest for large hydrophilic angles, i.e., in inverse correlation with calcein release (Table 2, Figure 5). However, some of the naturally occurring antimicrobial pept ...

≈ marks a conversion by molar mass, not a printed value. Where “and” joins values, the source holds several entries; their conditions need not be identical. Equal values may be shown once. Read-outs that look alike come from different tables or passages of the source. Where a SMILES comes first, the peptide text is derived from it.

Protocol for U87 cells: In vitro cell transfection experiments were performed using the plasmid p-Luc (7.6 kb), which is an expression plasmid encoding the firefly luciferase gene under the control of the human cytomegalovirus (CMV) immediate–early promoter. In total, 55,000 U87 cells were plated in 48-well plates one day before the experiment was performed. For transfection, 0.25 mL of serum-free culture medium containing the DNA complexes was deposited into each well of the duplicate. After incubation for approximately 2 h 30 min at 37 °C the medium was replaced with a fresh one containing serum. Luciferase activity was measured as described below in the cell lysate one day after transfection.
Transfection complexes were prepared as follows: for a duplicate, 1.5 μg of plasmid DNA and the desired amount of peptide were each diluted into 25 μL of acetate buffer pH 5 and gently mixed. DNA complexes were generated using increasing peptide/DNA w/w ratios. After 20 min of incubation at room temperature, the mixture was diluted with culture medium to obtain a final volume of 0.5 mL.
For luciferase activity, cells were harvested in 100 μL of lysis buffer (8 mM MgCl2, 1 mM DTT, 1 mM EDTA, 0.6% Triton X-100, 15% glycerol, and 25 mM Tris-phosphate buffer pH 7.8). The cell lysate was then transferred into Eppendorf tubes and centrifuged for 7 min at 10,000× g to pellet debris. Luciferase light units were measured in a 96-well plate format with a Centro LB luminometer (Berthold) from an aliquot of the supernatant (2 μL) with 1 s integration after automatic injection of 50 μL assay buffer (lysis buffer without Triton X-100 but supplemented with 2 mM ATP) and 50 μL of a luciferin solution (167 μM in water). Luciferase background was subtracted from each value and the protein content of the transfected cells was measured by Bradford dye-binding using the BioRad protein assay (Bio-Rad). The transfection efficiency was expressed as light units/s/mg protein (light units measured over a period of 1 s, and the values were then normalized after measurement of the amount of protein present in each well). The reported values are the mean of duplicates. Error bars represent the standard deviation of the mean.
glioblastoma U87 cells. Increasing amounts of peptide were mixed with a constant amount of reporter
plasmid (1.5 µg per duplicate of pDNA) and the complexes were incubated for 2h 30min with the
cells plated in 48-well plates. The transfection medium was then removed and replaced with fresh
culture medium supplemented with 10% serum. Luciferase activity was measured one day post-
transfection. The transfection efficiency is expressed as light units/s/mg protein and the reported
values are the mean of duplicates. Error bars represent the standard deviation of the mean.

In the case of `CC(C)C[C@H](NC(=O)[C@H](C)NC(=O)[C@H](C)NC(=O)[C@H](CC(C)C)NC(=O)[C@H](CC(C)C)NC(=O)[C@H](Cc1c[nH]cn1)NC(=O)[C@H](CC(C)C)NC(=O)[C@H](C)NC(=O)[C@H](Cc1c[nH]cn1)NC(=O)[C@H](C)NC(=O)[C@H](CC(C)C)NC(=O)[C@H](CC(C)C)NC(=O)[C@H](C)NC(=O)[C@H](CCCCN)NC(=O)[C@@H](N)CCCCN)C(=O)N[C@@H](C)C(=O)N[C@@H](CC(C)C)C(=O)N[C@@H](Cc1c[nH]cn1)C(=O)N[C@@H](CC(C)C)C(=O)N[C@@H](C)C(=O)N[C@@H](Cc1c[nH]cn1)C(=O)N[C@@H](CC(C)C)C(=O)N[C@@H](CC(C)C)C(=O)N[C@@H](CCCCN)C(=O)N[C@@H](CCCCN)C(=O)N[C@@H](C)C(N)=O` [LAH4-A1] (H-KKALLAHALHLLAALALHLAHLLKKA-NH2), the “DNA transfection activity (luciferase activity)” value (“DNA transfection activity” below) in the data set on U87 cells is recorded as “highest activity”. Further, the “luciferase protein transduction efficiency (luciferase activity, light units/s/mg protein)” value in the data set on HCT116 cells is “among the least efficient”. Moreover, in data set [1], the MIC is 25 µM (≈ 69.5 µg/mL) and the MIC50 is 13.9 µM (≈ 38.6 µg/mL).
In the case of `CC(C)C[C@H](NC(=O)[C@H](C)NC(=O)[C@H](CCCCN)NC(=O)[C@@H](N)CCCCN)C(=O)N[C@@H](CC(C)C)C(=O)N[C@@H](C)C(=O)N[C@@H](Cc1c[nH]cn1)C(=O)N[C@@H](C)C(=O)N[C@@H](CC(C)C)C(=O)N[C@@H](Cc1c[nH]cn1)C(=O)N[C@@H](CC(C)C)C(=O)N[C@@H](CC(C)C)C(=O)N[C@@H](C)C(=O)N[C@@H](CC(C)C)C(=O)N[C@@H](CC(C)C)C(=O)N[C@@H](C)C(=O)N[C@@H](CC(C)C)C(=O)N[C@@H](Cc1c[nH]cn1)C(=O)N[C@@H](CC(C)C)C(=O)N[C@@H](C)C(=O)N[C@@H](Cc1c[nH]cn1)C(=O)N[C@@H](C)C(=O)N[C@@H](CC(C)C)C(=O)N[C@@H](CCCCN)C(=O)N[C@@H](CCCCN)C(=O)N[C@@H](C)C(N)=O` [LAH4-L1] (H-KKALLAHALHLLALLALHLAHALKKA-NH2), the “DNA transfection activity” value with U87 cells was “highest activity”. In the data set on HCT116 cells, the “luciferase protein transduction efficiency (luciferase activity, light units/s/mg protein)” value is “among the least efficient”. Also, in data set [1], the MIC was 20 µM and 17 µM; the MIC50 was 8.6 µM (≈ 23.9 µg/mL).
In the case of `CC(C)C[C@H](NC(=O)[C@H](C)NC(=O)[C@H](C)NC(=O)[C@H](Cc1c[nH]cn1)NC(=O)[C@H](CC(C)C)NC(=O)[C@H](CC(C)C)NC(=O)[C@H](C)NC(=O)[C@H](CC(C)C)NC(=O)[C@H](Cc1c[nH]cn1)NC(=O)[C@H](CC(C)C)NC(=O)[C@H](CC(C)C)NC(=O)[C@H](C)NC(=O)[C@H](CCCCN)NC(=O)[C@@H](N)CCCCN)C(=O)N[C@@H](CC(C)C)C(=O)N[C@@H](C)C(=O)N[C@@H](Cc1c[nH]cn1)C(=O)N[C@@H](CC(C)C)C(=O)N[C@@H](C)C(=O)N[C@@H](C)C(=O)N[C@@H](CC(C)C)C(=O)N[C@@H](Cc1c[nH]cn1)C(=O)N[C@@H](CC(C)C)C(=O)N[C@@H](CCCCN)C(=O)N[C@@H](CCCCN)C(=O)N[C@@H](C)C(N)=O` [LAH4-L5] (H-KKALLHLALLHAALLAHLAALHLKKA-NH2), the “luciferase protein transduction efficiency (luciferase activity, light units/s/mg protein)” value in the data set on HCT116 cells was “the most efficient peptides”. In data set [1], the MIC result is recorded as “below 2 µM” and the MIC50 was 1.2 µM (≈ 3.33 µg/mL).
With H-KKALLALALHHLAHLALHLALALKKA-NH2 [LAH4], the “luciferase protein transduction efficiency (luciferase activity, light units/s/mg protein)” value in the data set with HCT116 cells is on record as “the most efficient peptides”. Besides, the “pH dependence of antimicrobial activity” value in data set [2] (E. coli, pH 5 compared to pH 7.5, result in words) was “considerably more pronounced at pH 5”. Besides, the MIC in data set [2] (reference peptide LAH4, E. coli) is listed as 8.8 µM.
For “H-KKALLALALHHLALLALHLAHALKKA-NH2 [LAH4-L2, isomer of LAH4, LAH4-Ln series]”, the “luciferase protein transduction efficiency (luciferase activity, light units/s/mg protein)” value with HCT116 cells is “the most efficient peptides”. In data set [1], the MIC50 was 4.7 µM.
In the case of “H-KKALLHALLAALLAHLHALLAHLKKA-NH2 [LAH4-A6, isomer of LAH4, LAH4-An series]”, the “DNA transfection activity” value with U87 cells is listed as “high levels of activity”. Moreover, the MIC50 in data set [1] was 2.9 µM.
Take “H-KKALLHALLAHLAALLHALLAHLKKA-NH2 [LAH4-A5, isomer of LAH4, LAH4-An series]”: in the data set on U87 cells, the “DNA transfection activity” value is recorded as “high levels of activity”. In addition, the “luciferase protein transduction efficiency (luciferase activity, light units/s/mg protein)” value with HCT116 cells is “the most efficient peptides”. Besides, the MIC50 in data set [1] is 5.3 µM.
“H-KKALLLAALHHLAALALHLAHLLKKA-NH2 [LAH4-A2, isomer of LAH4, LAH4-An series]”: the “luciferase protein transduction efficiency (luciferase activity, light units/s/mg protein)” value with HCT116 cells was “the most efficient peptides”. The MIC50 in data set [1] was 5 µM.
Consider cecropin, for which, in data set [3], the hydrophilic angle was 180 °.
Regarding magainin 2, the hydrophilic angle in data set [3] is 180 °.

The term MIC denotes the lowest concentration that inhibits growth of the organism. By MIC50 is commonly meant the lowest concentration that inhibits either 50% of growth or 50% of the strains tested, depending on the study.
